Results on eleven compounds are retold here after US7057052B2, “Heterocyclic quinones as pharmaceutical agents” (Duke University, priority 2002, dated 2006).

What all share (assay type): biochemical
For one experiment, the target named is T1, Cdc25A (Homo sapiens, UniProt P30304).
T1 sequence (P30304 1-524): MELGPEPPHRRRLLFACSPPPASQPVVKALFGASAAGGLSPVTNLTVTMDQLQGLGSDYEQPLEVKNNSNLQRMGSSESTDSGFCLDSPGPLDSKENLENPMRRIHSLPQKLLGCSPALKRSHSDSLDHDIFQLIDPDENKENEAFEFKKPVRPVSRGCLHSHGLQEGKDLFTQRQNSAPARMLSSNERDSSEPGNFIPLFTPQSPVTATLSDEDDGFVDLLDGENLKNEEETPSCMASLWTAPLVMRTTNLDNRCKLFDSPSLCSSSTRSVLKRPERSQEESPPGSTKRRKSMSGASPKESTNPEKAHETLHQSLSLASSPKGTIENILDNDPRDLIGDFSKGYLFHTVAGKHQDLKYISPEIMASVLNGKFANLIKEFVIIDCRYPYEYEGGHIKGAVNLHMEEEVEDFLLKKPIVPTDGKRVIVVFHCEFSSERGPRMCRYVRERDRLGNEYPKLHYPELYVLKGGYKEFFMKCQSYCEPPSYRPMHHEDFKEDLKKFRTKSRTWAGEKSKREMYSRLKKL
The experiment can be described thus: Cdc25A phosphatase inhibition screen at 50 μM. To be noted: read-out: Percent Inhibition at 50 uM compound, Cdc25 A. Here is the method: (§1) Using procedures known to those skilled in the art, the compounds listed in Table 3 were screened against Cdc25A, Cdc25B, and Cdc25C at 50 μM. […] To analyze these effects further, the compounds were then screened against Cdc25B in a 3 pt. IC-50, using 1, 7 and 50 μM. Several of the compounds were also screened with an 8 pt. IC-50 process, using 0.1–10 μM, allowing determination of Hill slopes.

The next experiment deals with T2, Cdc25C (Homo sapiens, UniProt P30307).
T2 sequence (P30307 1-473): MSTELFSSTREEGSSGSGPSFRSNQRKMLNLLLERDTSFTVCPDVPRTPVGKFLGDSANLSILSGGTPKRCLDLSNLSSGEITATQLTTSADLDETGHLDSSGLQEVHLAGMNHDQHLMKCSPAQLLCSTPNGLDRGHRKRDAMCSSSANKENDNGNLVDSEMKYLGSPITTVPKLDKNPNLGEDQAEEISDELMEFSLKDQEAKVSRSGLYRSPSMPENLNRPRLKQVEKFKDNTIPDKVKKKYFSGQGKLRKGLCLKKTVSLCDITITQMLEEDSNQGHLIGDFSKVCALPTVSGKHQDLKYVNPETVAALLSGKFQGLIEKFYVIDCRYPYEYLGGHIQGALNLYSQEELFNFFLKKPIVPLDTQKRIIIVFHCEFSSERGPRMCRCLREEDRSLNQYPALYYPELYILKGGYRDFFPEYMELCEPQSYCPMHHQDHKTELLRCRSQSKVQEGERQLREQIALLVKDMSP
The experiment can be described thus: Cdc25C phosphatase inhibition screen at 50 μM. To be noted: read-out: Percent Inhibition at 50 uM compound, Cdc25 C. Here is the method:
as §1

The target of the next experiment is T3, Cdc25B (Homo sapiens, UniProt P30305).
T3 sequence (P30305 1-580): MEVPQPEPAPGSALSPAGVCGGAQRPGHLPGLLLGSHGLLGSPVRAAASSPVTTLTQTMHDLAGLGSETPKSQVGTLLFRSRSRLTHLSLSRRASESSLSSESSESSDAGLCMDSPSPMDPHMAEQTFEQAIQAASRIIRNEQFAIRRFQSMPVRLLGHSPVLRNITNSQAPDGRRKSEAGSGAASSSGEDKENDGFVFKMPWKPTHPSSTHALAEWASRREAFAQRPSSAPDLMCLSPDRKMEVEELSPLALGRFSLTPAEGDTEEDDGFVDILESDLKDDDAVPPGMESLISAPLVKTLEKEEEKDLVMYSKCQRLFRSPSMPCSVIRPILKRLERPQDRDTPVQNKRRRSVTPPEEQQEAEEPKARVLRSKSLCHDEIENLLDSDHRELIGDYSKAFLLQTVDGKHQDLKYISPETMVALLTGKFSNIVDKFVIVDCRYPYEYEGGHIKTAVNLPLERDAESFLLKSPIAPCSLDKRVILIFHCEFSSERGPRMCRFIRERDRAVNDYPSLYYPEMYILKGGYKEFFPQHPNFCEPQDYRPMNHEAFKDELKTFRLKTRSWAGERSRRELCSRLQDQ
Kind of experiment: Cdc25B phosphatase inhibition (50 μM screen, 3 pt. and 8 pt. IC-50). To be noted: for IC50: Cdc25B, 3 pt. IC-50 using 1, 7 and 50 μM, read-out: IC50 (3 pt); for inhibition at 50 µM: read-out: Percent Inhibition at 50 uM compound, Cdc25 B. Here is the method: as §1

The inhibition is the drop in the measured response relative to a control, in per cent. The IC50 is the midpoint of a concentration-inhibition curve. Regarding `COc1cccc2c(C3=C(O)C(=O)C=C(O)C3=O)c[nH]c12` [7A, 2,5-dihydroxy-3-(7-methoxy-1H-indol-3-yl)-[1,4]-benzoquinone], the inhibition at 50 µM stood at 36% on Cdc25A, 13% on Cdc25C and 15% on Cdc25B. In addition, the IC50 at Cdc25B came out at 79.5 µM.
Regarding `O=C1C=C(O)C(=O)C(c2c[nH]c3c(OCc4ccccc4)cccc23)=C1O` [7B, 2,5-dihydroxy-3-(7-benzyloxy-1H-indol-3-yl)-[1,4]-benzoquinone], the inhibition at 50 µM was determined as 98% at Cdc25A, 85% at Cdc25C and 97% on Cdc25B. The IC50 at Cdc25B amounted to 1.6 µM.
In the same order, the values of `Cc1ccc2[nH]c(C)c(C3=C(O)C(=O)C=C(O)C3=O)c2c1` [7C, 2,5-dihydroxy-3-(2,5-dimethyl-1H-indol-3-yl)-[1,4]-benzoquinone] are 61%, 25%, 20% and 16.5 µM.
For `COc1ccc2[nH]c(C)c(C3=C(O)C(=O)C=C(O)C3=O)c2c1` [7D, 2,5-dihydroxy-3-(2-methyl-5-methoxy-1H-indol-3-yl)-[1,4]-benzoquinone] the same measures were 0%, 31%, 0% and 126 µM.
For `Cc1[nH]c2ccc(Cl)cc2c1C1=C(O)C(=O)C=C(O)C1=O` [7E, 2,5-dihydroxy-3-(2-methyl-5-chloro-1H-indol-3-yl)-[1,4]-benzoquinone] the same measures were 91%, 81%, 60% and 52.2 µM.
Take `Cc1ccc2c(C3=C(O)C(=O)C=C(O)C3=O)c(C)[nH]c2c1` [7F, 2,5-dihydroxy-3-(2,6-dimethyl-1H-indol-3-yl)-[1,4]-benzoquinone]: the inhibition at 50 µM at Cdc25A amounted to 46%; at Cdc25C, 0%; on Cdc25B, 16%. Besides, the IC50 at Cdc25B was 207 µM.
For `Cc1[nH]c2c(C)cccc2c1C1=C(O)C(=O)C=C(O)C1=O` [7G, 2,5-dihydroxy-3-(2,7-dimethyl-1H-indol-3-yl)-[1,4]-benzoquinone] the same measures were 20%, 0%, 0% and 38.5 µM.
For `O=C1C=C(O)C(=O)C(c2c[nH]c3cc4c(cc23)OCO4)=C1O` [7H, 2,5-dihydroxy-3-(5,6-methylenedioxy-1H-indol-3-yl)-[1,4]-benzoquinone] the same measures were 96%, 63%, 88% and 3.7 µM.
In the same order, the values of `COc1cc2[nH]cc(C3=C(O)C(=O)C=C(O)C3=O)c2cc1OC` [8A, 2,5-dihydroxy-3-(5,6-dimethoxy-1H-indol-3-yl)-[1,4]-benzoquinone] are 39%, 20%, 19% and 117 µM.
As for `Cc1ccc2c(C3=C(O)C(=O)C=C(O)C3=O)c[nH]c2c1C` [8B, 2,5-dihydroxy-3-(6,7-dimethyl-1H-indol-3-yl)-[1,4]-benzoquinone], the inhibition at 50 µM came out at 90% at Cdc25A, 20% at Cdc25C and 32% on Cdc25B. Moreover, on Cdc25B, the IC50 was 12.8 µM.
`O=C1C=C(O)C(=O)C(c2c[nH]c3c2ccc2ccccc23)=C1O` [8C, 2,5-dihydroxy-3-(1H-benzo[g]indol-3-yl)-[1,4]-benzoquinone]: the values for the inhibition at 50 µM on Cdc25A, at Cdc25C and at Cdc25B were 98%, 75% and 79%, respectively. In addition, the IC50 on Cdc25B came to 2.8 µM.
